The values that follow come from US6677276B1, “Herbicides for tolerant or resistant oil seed rape cultures” (Aventis CropScience GmbH, priority 1998, dated 2004).

In one data set the test system is Oil-seed rape LL. Nature of the data set: Field trial, crop plant tolerance. In kind it is in vivo, Liberty-Link oil-seed rape. Conditions: crop damage. As to the method:
Transgenic oil-seed rape plants with resistance to one or more herbicides (A) were grown together with typical weed plants in the open in 2×5 m plots under natural field conditions; alternatively, the weed population established naturally while the oil-seed rape plants grew.
Damage and development of all aerial plant organs was recorded. […] The score values of in each case 4 plots were averaged.

For the next data set, the system named is Datura stramonium. As to the kind of experiment: Oil-seed rape field trial, herbicidal action (Table 2). In kind it is in vivo. The note with it: application in the 5-leaf stage, scoring 3 weeks after application. The protocol: (§1) Transgenic oil-seed rape plants with resistance to one or more herbicides (A) were grown together with typical weed plants in the open in 2×5 m plots under natural field conditions; alternatively, the weed population established naturally while the oil-seed rape plants grew. Treatment with the compositions according to the invention and, for control purposes, with separate application of the active ingredients of the components alone, was carried out under standard conditions with a plot sprayer at an application rate of 200-300 liters of water per hectare in parallel trials in accordance with the scheme of Table 1, i.e. pre-sowing/pre-emergence, post-sowing/-pre-emergence or post-emergence at the early, medium or late stage.
[…] Damage and development of all aerial plant organs was recorded. The scoring was done using a percentage scale (100% activity=all plants dead; 50% activity=50% of the plants and green plant organs dead; 0% activity=no discernible effect=like control plot). The score values of in each case 4 plots were averaged.

The test system of another data set is Cirsium arvense. As to the kind of experiment: Field trial, herbicidal action (Table 5). The data set is classed as in vivo. The note with it: application in the 4-leaf stage, scoring 15 days after application. As to the method: as §1
(§2) At 2, 4, 6 and 8 week intervals after application, the herbicidal activity of the active ingredients or active ingredient mixtures were scored visually by comparing the treated plots with untreated control plots. Damage and development of all aerial plant organs was recorded. The scoring was done using a percentage scale (100% activity=all plants dead; 50% activity=50% of the plants and green plant organs dead; 0% activity=no discernible effect=like control plot). The score values of in each case 4 plots were averaged.

For another data set, the system named is Chenopodium album. As to the kind of experiment: Field trial, herbicidal action (Table 5). The data set is classed as in vivo. Conditions: application in the 4-leaf stage, scoring 15 days after application. The protocol: as §1, §2
The test system of the next data set is Galium aparine. Nature of the data set: Oil-seed rape field trial, herbicidal action (Table 3). The data set is classed as in vivo. The note with it: application in the 4-5 leaf stage, scoring 36 days after application. The protocol: as §1, §2
The next data set relates to Matricaria chamomita. Nature of the data set: Field trial, herbicidal action (Table 4). In kind it is in vivo. Conditions: post-emergence application in the 4-leaf stage, scoring 28 days after post-emergence application. The protocol: as §1, §2

Counter-ions that a name gives are not always drawn.

On to `CP(=O)(O)CCC(N)C(=O)O` (stereo not shown) [(A1.2), glufosinate monoammonium salt], for which the “Oil-seed rape LL” value was determined as 0% with Oil-seed rape LL (125 g of A.S./ha, 4-5 leaf stage, scoring 36 days after application); 0% in the data set on Oil-seed rape LL (230 g of A.S./ha, 4-leaf stage, scoring 15 days after application); 0% in the data set on Oil-seed rape LL (250 g of A.S./ha, 4-5 leaf stage, scoring 36 days after application); 0% with Oil-seed rape LL (350 g of A.S./ha, 4-leaf stage, scoring 15 days after application); 3% in the data set with Oil-seed rape LL (500 g of A.S./ha, 4-5 leaf stage, scoring 36 days after application). Also, the “Herbicidal action (%) against Datura stramonium” value in the data set on Datura stramonium (600 g of A.S./ha) came out at 90%. Further, the “Herbicidal action (%) against Cirsium arvense” value in the data set with Cirsium arvense (230 g of A.S./ha) is reported as 85%; in the data set with Cirsium arvense (350 g of A.S./ha), 97%. For the same compound, in the data set with Chenopodium album (230 g of A.S./ha), the “Herbicidal action (%) against Chenopodium album” value was determined as 90%. In addition, the “Herbicidal action (%) against Galium aparine” value in the data set on Galium aparine (125 g of A.S./ha) is 15%; in the data set on Galium aparine (250 g of A.S./ha), 41%; in the data set with Galium aparine (500 g of A.S./ha) it was 63%. Moreover, the “Herbicidal action % against Matricaria chamomita” value (from here on “Herbicidal action %”) with Matricaria chamomita (125 g of A.S./ha) is recorded as 10%; in the data set with Matricaria chamomita (250 g of A.S./ha), 35%; with Matricaria chamomita (500 g of A.S./ha), 65%.

As for `Cc1cccc(C)c1N(Cn1cccn1)C(=O)CCl` [(B1.1), 2-chloro-N-(2,6-dimethylphenyl)-N-(1H-pyrazol-1-ylmethyl)acetanilide], the figures for the “Herbicidal action (%) against Datura stramonium” value in the data set with Datura stramonium (600 g of A.S./ha) and in the data set on Datura stramonium (1200 g of A.S./ha) were 40% and 93%, respectively.

Regarding `Cc1cnc2c(C(=O)O)c(Cl)ccc2c1` [(B2.1), 7-chloro-3-methylquinoline-8-carboxylic acid], in the data set with Matricaria chamomita (300 g of A.S./ha), the “Herbicidal action %” value was 50%.

In the case of `O=C(O)c1nc(Cl)ccc1Cl` [(B2.2), 3,6-dichloropyridine-2-carboxylic acid], the “Oil-seed rape LL” value in the data set with Oil-seed rape LL (90 g of A.S./ha, 4-leaf stage, scoring 15 days after application) is given as 0%. In the data set with Cirsium arvense (90 g of A.S./ha), the “Herbicidal action (%) against Cirsium arvense” value worked out at 85%. Moreover, in the data set on Chenopodium album (90 g of A.S./ha), the “Herbicidal action (%) against Chenopodium album” value came out at 50%.

For `CCCCCCCCSC(=O)Oc1cc(Cl)nnc1-c1ccccc1` [(B2.3), O-(6-chloro-3-phenylpyridazin-4-yl) S-octyl thiocarbonate], in the data set on Matricaria chamomita (600 g of A.S./ha), the “Herbicidal action %” value stood at 60%.

On to `CCOc1nc(NC)nc(NC(=O)NS(=O)(=O)c2ccccc2C(=O)OC)n1` [(B2.4), methyl 2-{N-[N-(4-ethyox-6-methylamino-1,3,5-triazin-2-yl)aminocarbonyl]aminosulfonyl}benzoate], for which, in the data set on Oil-seed rape LL (15 g of A.S./ha, 4-leaf stage, scoring 15 days after application), the “Oil-seed rape LL” value turned out to be 0%. In addition, in the data set with Cirsium arvense (15 g of A.S./ha), the “Herbicidal action (%) against Cirsium arvense” value is listed as 0%. Also, in the data set on Chenopodium album (15 g of A.S./ha), the “Herbicidal action (%) against Chenopodium album” value is 30%.
